Results from patent US4153692A, “Acylated imidazolyl-O,N-acetals, their pharmaceutically acceptable salts and metal complexes” (Bayer Aktiengesellschaft, priority 1976, dated 1979).
In brackets after ≈: the same amount, converted by molar mass.

How the values were obtained:
Aspergillus niger = test: Antimycotic in vitro activity (series dilution test, MIC); type: cell-based; conditions: Sabouraud's milieu d'epreuve, 28° C., 24 to 96 hours, 5 × 10^4 germs/ml, read-out: MIC values in γ/ml of nutrient medium with Aspergillus niger
Procedure: (§1) Antimycotic in vitro activity Description of the experiment The in vitro tests were carried out in a series dilution test using germ inocula with an average of 5 × 10^4 germs/ml of substrate. The nutrient medium used was a) for dermatophytes and molds: Sabouraud's milieu d'epreuve and b) for yeasts: meat extract/glucose broth. The incubation temperature was 28° C. and the incubation time was 24 to 96 hours.

Candida albicans = test: as above; type: cell-based; conditions: meat extract/glucose broth, 28° C., 24 to 96 hours, 5 × 10^4 germs/ml, read-out: MIC values in γ/ml of nutrient medium with Candida albicans
Procedure: as §1

Microsporum felinum = test: as above; type: cell-based; conditions: Sabouraud's milieu d'epreuve, 28° C., 24 to 96 hours, 5 × 10^4 germs/ml, read-out: MIC values in γ/ml of nutrient medium with Microsporum felinum
Procedure: as §1

Penicillium commune = test: as above; type: cell-based; conditions: Sabouraud's milieu d'epreuve, 28° C., 24 to 96 hours, 5 × 10^4 germs/ml, read-out: MIC values in γ/ml of nutrient medium with Penicillium commune
Procedure: as §1

[1] = system: Trichophyton mentagrophytes; test: as above; type: cell-based; conditions: Sabouraud's milieu d'epreuve, 28° C., 24 to 96 hours, 5 × 10^4 germs/ml, read-out: MIC values in γ/ml of nutrient medium with Trichophyton mentagrophytes
Procedure: as §1

Candida cells = test: Antimycotic in vivo activity on candidosis in mice; parameters: species or system mice of the SPF-CF1 type; conditions: mice infected i.v. with Candida; 100 mg/kg orally one hour before and seven hours after infection; untreated survival about 5%
Procedure: antimycotic in vivo activity on candidosis in mice Description of the experiment Mice of the SPF-CF1 type were infected intravenously with 1-2 × 10^6 logarithmically-growing Candida cells, which were suspended in physiological sodium chloride solution. One hour before and seven hours after the infection the animals were treated orally with, in each case, 100 mg of the formulations per kg of body weight. Untreated animals died of the infection 3 to 6 days after infection. The survival rate on the 6th day after infection was about 5% in the case of the untreated control animals

Row | SMILES | MIC (Aspergillus niger) | MIC (Candida albicans) | MIC (Microsporum felinum) | MIC (Penicillium commune) | MIC [1] | Action (survivors on the 6th day after infection) (Candida cells)
1 | CC(C)(C)C(O)C(Oc1ccccc1)n1ccnc1 (stereo not shown) | > 64 µg/mL | 32 µg/mL (≈ 123 µM) | > 64 µg/mL | > 64 µg/mL | 32 µg/mL (≈ 123 µM) | –
2 | CC(C)(C)C(O)C(Oc1cccc(Cl)c1)n1ccnc1 (stereo not shown) [drawing 13] | – | – | – | – | – | + (trace action = < 40% survivors on 6th day after infection)
3 | CC(=O)OC(C(Oc1ccc(I)cc1)n1ccnc1)C(C)(C)C (stereo not shown) [drawing 10] | 64 µg/mL (≈ 149 µM) | 32 µg/mL (≈ 74.7 µM) | 32 µg/mL (≈ 74.7 µM) | 64 µg/mL (≈ 149 µM) | 4 µg/mL (≈ 9.34 µM) | –
4 | CC(=O)OC(C(Oc1ccc(Br)cc1)n1ccnc1)C(C)(C)C (stereo not shown) [drawing 9] | 64 µg/mL (≈ 168 µM) | 64 µg/mL (≈ 168 µM) | 32 µg/mL (≈ 83.9 µM) | 32 µg/mL (≈ 83.9 µM) | 4 µg/mL (≈ 10.5 µM) | –
5 | CC(=O)OC(C(Oc1ccc(I)cc1)n1ccnc1)C(C)(C)C (stereo not shown) [drawing 20] | – | – | – | – | – | + (trace action = < 40% survivors on 6th day after infection)
6 | CC(C)(C)c1ccc(OC(C(O)C(C)(C)C)n2ccnc2)cc1 (stereo not shown) | – | 64 µg/mL (≈ 202 µM) | – | > 64 µg/mL | 32 µg/mL (≈ 101 µM) | –
7 | CC(=O)OC(C(Oc1ccc(-c2ccc(Cl)cc2)cc1)n1ccnc1)C(C)(C)C (stereo not shown) [drawing 18] | – | – | – | – | – | ++++ (good action = ≥ 80% survivors on the 6th day after infectio)
8 | CC(=O)OC(C(Oc1ccc(Br)cc1)n1ccnc1)C(C)(C)C (stereo not shown) [drawing 16] | – | – | – | – | – | ++ (weak action = ≥ 40% survivors on the 6th day after infection)
9 | CC(=O)OC(C(Oc1ccc(Cl)cc1)n1ccnc1)C(C)(C)C (stereo not shown) [drawing 7] | 64 µg/mL (≈ 190 µM) | 32 µg/mL (≈ 95 µM) | 32 µg/mL (≈ 95 µM) | 32 µg/mL (≈ 95 µM) | 4 µg/mL (≈ 11.9 µM) | –
10 | CC(=O)OC(C(Oc1ccc(C2CCCCC2)cc1)n1ccnc1)C(C)(C)C (stereo not shown) | – | 64 µg/mL (≈ 166 µM) | – | 32 µg/mL (≈ 83.2 µM) | 8 µg/mL (≈ 20.8 µM) | –
11 | CC(=O)OC(C(Oc1ccc(F)cc1)n1ccnc1)C(C)(C)C (stereo not shown) | – | – | – | – | – | +++ (action = ≥ 60% survivors on the 6th day after infection)
12 | CC(=O)OC(C(Oc1ccc(Cl)cc1)n1ccnc1)C(C)(C)C (stereo not shown) [drawing 15] | – | – | – | – | – | ++++ (good action = ≥ 80% survivors on the 6th day after infectio)
13 | CC(=O)OC(C(Oc1ccccc1)n1ccnc1)C(C)(C)C (stereo not shown) | – | – | – | – | – | ++ (weak action = ≥ 40% survivors on the 6th day after infection)
14 | CC(C)(C)C(O)C(Oc1cccc(Cl)c1)n1ccnc1 (stereo not shown) [drawing 4] | – | 32 µg/mL (≈ 109 µM) | – | > 64 µg/mL | 64 µg/mL (≈ 217 µM) | –
15 | CC(=O)OC(C(Oc1ccc(-c2ccccc2)cc1)n1ccnc1)C(C)(C)C (stereo not shown) | < 1 µg/mL | 64 µg/mL (≈ 169 µM) | 8 µg/mL (≈ 21.1 µM) | 8 µg/mL (≈ 21.1 µM) | < 1 µg/mL | –
16 | CC(=O)OC(C(Oc1ccc(-c2ccc(Cl)cc2)cc1)n1ccnc1)C(C)(C)C (stereo not shown) [drawing 11] | 64 µg/mL (≈ 155 µM) | 32 µg/mL (≈ 77.5 µM) | 32 µg/mL (≈ 77.5 µM) | 64 µg/mL (≈ 155 µM) | < 1 µg/mL | –
